Experiment [1] relates to CT-DNA. Kind of experiment: DNA binding by UV-visible absorption titration. To be noted: for % H (hypochromism) / Δλ nm (red shift on DNA binding): Tris-HCl pH 7.4, 25°C; for ∆Gb° BH-I: from Kb BH-I; for ∆Gb° BH-I / ∆Gb° (BH-II) / ∆Gb° SK-I / ∆Gb° (SK-II) / ∆Gb° (WS-II) / ∆Gb° WS-I: T = 298 K; for ∆Gb° (BH-II): from Kb BH-II; for ∆Gb° SK-I: from Kb SK-I; for ∆Gb° (SK-II): from Kb SK-II; for ∆Gb° (WS-II): from Kb WS-II; for ∆Gb° WS-I: from Kb WS-I. The arrangement: species or system calf thymus. How it is done: The DNA-binding experiment was conducted by an electronic absorption spectrophotometer by raising the DNA concentration from zero to 50 μM to the given concentration of all samples (50 μM) in Tris-HCl buffer solution (pH: 7.4) at 25°C [6, 28, 31, 32].
UV-visible absorption titration is the main imperative approach to observing the tendency of test substances to bind with deoxyribonucleic acid. The approach is commonly utilized to evaluate the potency and mode of binding of the test substances with deoxyribonucleic acid. The essential information regarding conformational change, the effectiveness of the DNA-substance binding, and the negatively charged phosphate on deoxyribonucleic acid are neutralized via exterior contact, and intercalation through interactions between π-π stacks is presented by DNA binding towards metal complexes. All complexes (1a-2a), including the free ligand (HL), were measured in the presence and absence of deoxyribonucleic acid by ultraviolet-visible spectrophotometric titrations under Tris-HCl buffer solution (pH: 7.4) at room temperature (Figure 2). In this case, all samples were exposed to two prominent electronic absorption bands at 260 nm and 336–343 nm, consequent to the π-π^∗ transition of the phenyl chromophore and MLCT, respectively. While the amount of DNA concentration rises in each test compound, the interaction of the chemical substance with DNA base pairs generates noticeable alterations in the intraligand charge transfer bands' strength and wavelength. […] The Kb findings were measured for all samples by the Wolfe–Shimmer equations […] by methods I and II, respectively, from the findings of the slope divided by the intercept in the linear regression plots of [DNA]/(ɛa − ɛf) vs. [DNA] and the intercept divided by intercept slope in the linear regression plot of (ɛb − ɛf)/(ɛa − ɛf) vs. 1/[DNA] M^−1 (Figure S17), and the Kb results for each sample were in the subsequent sequence: (1a) > (2a) > (HL). […] It is concluded that the morpholine linked ligand's coplanarity and 2,2′-bipyridine aromatic system complexation with the metal center, which promotes the complex to infiltrate DNA base pairs smoothly, and large aromatic systems may also assist the complex to penetrate the phosphate backbone's core deeply, and those substances may permit the complex to freely penetrate deep into the deoxyribonucleic acid double helix. In addition, the observed isosbestic points are found at 256 and 276 nm for free ligand and complexes (1a-2a), respectively. […] The Wolfe–Shimmer (1 and 2), Benesi–Hildebrand (3 and 4), and Sakthi–Krause equations (5 and 6) were supported to evaluate Kb results for all samples (Table 1). The Benesi–Hildebrand binding constant (Kb) values were measured using equations (3) and (4) by methods I and II, respectively, from the intercept divided by slope in the linear regression plot of [1/(Ax − A0)] vs. {1/[DNA]} M^−1 and the intercept divided by slope in the linear regression plot of [(Amax − A0)/(Ax − A0)] vs. {1/[DNA]} M^−1 (Figure S18). The Kb values were estimated using Sakthi–Krause equations (5) and (6) by methods I and II, respectively, with the intercept divided by slope in the linear regression plot of [(A/(A0 − A)] vs. {1/[DNA]} M^−1 (Figure S19) and the antilogarithm value of the intercept in the linear regression plot of log {1/[DNA]} vs. log [(A/(A0 − A)]M^−1 (Figure S20). In addition, the Van't Hoff equation (7) was supported to obtain the ∆Gb° values for DNA interaction, and equation (8) was supported to measure the % of chromicity for all substances (Table 1). The overall measured Kb findings were in the subsequent sequence: (1a) > (2a) > (HL). In these cases, the observed ∆Gb° values were reported in the range of −19.91 to −29.13, −21.55 to −26.04 and −22.50 to –25.22 kJ·mol^−1, respectively (Table 1). In these cases, the complex (1a) had the highest DNA-binding efficacy among all binding results. […]

Experiment [2] concerns Salmonella enteric serovar typhi. Nature of the experiment: Agar disc diffusion, strain C. The settings on record: for diameter of the clear zone inhibition: control = 6 mm. In kind it is cell-based. How it is done: In-vitro antimicrobial properties were evaluated for all samples by the agar disc diffusion method towards different fungal and bacterial strains. Additionally, the reported inhibition zone values were comparatively analyzed with the standard antifungal drugs ketoconazole and amphotericin B as well as the standard antibiotic medications streptomycin and amikacin.
The current research has a curious focus on the in vitro antimicrobial properties of biological systems because these studies are crucial for developing effective antibacterial and antifungal medications. […] It can also be spelled out based on the chelation theory proposed by Overtone and Tweedy. Chelation theory points out that the partial exchanging of the positive charge of the metal center with donor moieties, and overlap of the ligand orbitals will reduce the greater degree of the metal ion's polarity, which ultimately rises the delocalization of π and d electrons over the full chelated ring system. By raising the size of the metal ion due to the retarding of polarization, chelation may also enhance the complexes' lipophilic characteristics, which further stimulate the lipid membrane permeability and break down the bacteria' enzymes responsible for cell wall formation, therefore slowing down the regular cell processes. By preventing the production of cell walls/proteins/DNA, including by obstructing folate metabolism and the cytoplasmic membrane, antimicrobial drugs frequently either fully eliminate microbes or only prevent their cell growth. Additionally, the samples' mode of action may be employed in disrupting the cell's respiration process by forming an H-bond during the morpholine-fused iminic group coordinated with the active metal center of its components, inhibiting proliferation of the cell. […] The difference in the antimicrobial efficacy of some of the compounds towards various microorganisms influences on the impermeability of the cells of the germs or the diversity of ribosomes of the microbes. The % of the inhibition of all substances is estimated from (45) (Table 9).
(A, B, C, D, and E are represented as gram negative bacteria species Escherichia coli, Salmonella enteric serovar typhi, Salmonella enteric serovar typhi, Pseudomonas aeruginosa, and Shigella flexneri, respectively. F & G are denoted as gram positive bacteria species Staphylococcus aureus and Bacillus cereus. H, I, and J are represented as fungal strains Aspergillus niger, Candida albicans, and Mucor indicus. Standard drugs for bacterial strains: Amikacin & Streptomycin Standard drugs for fungal strains: Ketoconazole and Amphotericin B. [Control (DMSO) = 6 mm].(44) Inhibition %=T–C/T×100, where T and C are represented as the diameter of microbial growth of the sample plates and the control plate (6 mm), respectively. Error limits ±2.5–5.0% (P ≤ 0.05).
In general terms: In agar diffusion tests the substance spreads into inoculated agar from a disc or well.

Turning to `[Cu+2].[O-]c1ccccc1N=Cc1ccc(N2CCOCC2)cc1.[O-]c1ccccc1N=Cc1ccc(N2CCOCC2)cc1.c1ccc(-c2ccccn2)nc1` [(1a), [Cu(L)2(bpy)]], in experiment [1], the “% H (hypochromism)” value is on record as 52.18%, the “Δλ nm (red shift on DNA binding)” value came to 07 nm, the “∆Gb° BH-I” value is -6.224 kcal/mol and the “∆Gb° (BH-II)” value was -5.985 kcal/mol. In experiment [1], the “∆Gb° SK-I” value is -5.772 kcal/mol, the “∆Gb° (SK-II)” value was -6.028 kcal/mol and the “∆Gb° (WS-II)” value was -5.918 kcal/mol. In addition, in experiment [2], the “(inhibition %)” value is 50% and the “diameter of the clear zone inhibition” value is on record as 12 mm.

Regarding `[O-]c1ccccc1N=Cc1ccc(N2CCOCC2)cc1.[O-]c1ccccc1N=Cc1ccc(N2CCOCC2)cc1.[Zn+2].c1ccc(-c2ccccn2)nc1` [(2a), [Zn(L)2(bpy)]], in experiment [1], the “% H (hypochromism)” value is reported as 43.15%, the “Δλ nm (red shift on DNA binding)” value turned out to be 05 nm, the “∆Gb° BH-I” value was -5.925 kcal/mol and the “∆Gb° (BH-II)” value is -5.937 kcal/mol. In addition, in experiment [1], the “∆Gb° SK-I” value is -5.664 kcal/mol, the “∆Gb° (SK-II)” value is -5.868 kcal/mol, the “∆Gb° WS-I” value was -5.8114 kcal/mol and the “∆Gb° (WS-II)” value is -5.774 kcal/mol. For the same molecule, in experiment [2], the “(inhibition %)” value is on record as 33% and the “diameter of the clear zone inhibition” value is reported as 09 mm.

For `Oc1ccccc1N=Cc1ccc(N2CCOCC2)cc1` [(HL), 2-(4-morpholinobenzylideneamino)phenol], in experiment [1], the “% H (hypochromism)” value turned out to be 37.13%, the “Δλ nm (red shift on DNA binding)” value came out at 04 nm, the “∆Gb° BH-I” value is -5.151 kcal/mol and the “∆Gb° (BH-II)” value is -5.851 kcal/mol. Further, in experiment [1], the “∆Gb° SK-I” value was -5.378 kcal/mol, the “∆Gb° (SK-II)” value is -5.779 kcal/mol, the “∆Gb° WS-I” value is -5.7 kcal/mol and the “∆Gb° (WS-II)” value was -5.712 kcal/mol. Further, in experiment [2], the “(inhibition %)” value was 45% and the “diameter of the clear zone inhibition” value is 11 mm.
